System: compound 48/80-induced lethality in rats
Assay: Protection of rats from compound 48/80-induced lethality
Assay type: in vivo, rat (male, inbred Wistar strain)
Settings: Rattus norvegicus, 4 h, male Wistar rats; s.c. or oral, one hour before 0.5 mg/kg i.v. compound 48/80; ED50 = dose protecting 50% of animals; survival after 4 hours; read-out: compound 48/80 lethality test in rats-ED50
Text: Protection of rats from compound 48/80-induced lethality.
Compound 48/80, a mixture of oligomers obtained by condensation of 4-methoxy-N-methylbenzeneethanamine and formaldehyde has been described as a potent histamine releasing agent (Int. Arch. Allergy, 13, 336 (1958)). The protection from compound 48/80-induced lethal circulatory collapse appears to be a simple way of evaluating quantitatively the antihistaminic activity of test compounds. Male rats of an inbred Wistar strain, weighing 240-260 g were used in the experiment. After overnight starvation the rats were transferred to conditioned laboratories (temp.=21±1° C., relative humidity=65±5%). The rats were treated subcutaneously or orally with a test compound or with the solvent (NaCl solution, 0.9%). One hour after treatment there was injected intravenously compound 48/80, freshly dissolved in water, at a dose of 0.5 mg/kg (0.2 ml/100 g of body weight). In control experiments, wherein 250 solvent-treated animals were injected with the standard dose of compound 48/80, not more than 2.8% of the animals survived after 4 hours. Survival after 4 hours is therefore considered to be a safe criterion of a protective effect of drug administration.
Said ED50 -values are the values in mg/kg body weight at which the tested compounds protect 50% of the tested animals against compound 48/80-induced lethality.

| Molecule | ED50 |
| --- | --- |
| Cl.Cl.O.O.c1coc(Cn2c(NC3CCN(CC4COc5ccccc5O4)CC3)nc3cncnc32)c1 (stereo not shown) [Compound 60, N-[1-[(2,3-dihydro-1,4-benzodioxin-2-yl)methyl]-4-piperidinyl]-9-(2-furanyl-methyl)-9H-purin-8-amine dihydrochloride dihydrate] | 0.08 mg/kg |
| Cc1ccc(Cn2c(NC3CCN(CC4COc5ccccc5O4)CC3)nc3cncnc32)o1 (stereo not shown) [Compound 61, N-[1-[(2,3-dihydro-1,4-benzodioxin-2-yl)methyl]-4-piperidinyl]-9-[(5-methyl-2-furanyl)methyl]-9H-purin-8-amine] | 0.01 mg/kg |
| COc1ccc(CCN2CCC(Cc3nc4ncnc(O)c4n3Cc3ccc(F)cc3)CC2)cc1 [Compound 62, 7-[(4-fluorophenyl)methyl]-8-[[1-[2-(4-methoxyphenyl)ethyl]-4-piperidinyl]methyl]-7H-purin-6-ol] | 0.04 mg/kg |
| COc1ccc(CCN2CCC(Oc3nc4cncnc4n3Cc3ccc(F)cc3)CC2)cc1 [Compound 64] | 0.08 mg/kg |
| COc1ccc(CCN2CCC(Nc3nc4cncnc4n3Cc3ccccn3)CC2)cc1 [Compound 74, N-[1-[2-(4-methoxyphenyl)ethyl]-4-piperidinyl]-9-(2-pyridinylmethyl)-9H-purin-8-amine] | 0.01 mg/kg |
| COc1ccc(CCN2CCC(Nc3nc4cncnc4n3Cc3ccc(F)cc3)CC2)cc1 [Compound 75] | 0.08 mg/kg |
| COc1ccc(CCN2CCC(Nc3nc4cncnc4n3Cc3ccco3)CC2)cc1 [Compound 76] | 0.02 mg/kg |
| COc1ccc(CCN2CCC(Nc3nc4cncnc4n3Cc3cccs3)CC2)cc1 [Compound 77] | 0.02 mg/kg |
| COc1ccc(CCN2CCC(Nc3nc4ncncc4n3Cc3ccc(F)cc3)CC2)cc1 [Compound 78] | 0.04 mg/kg |
| COc1ccc(CCN2CCC(Nc3nc4cncnc4n3Cc3ccc(C)o3)CC2)cc1 [Compound 79] | 0.04 mg/kg |
| COc1ccc(CCN2CCC(Nc3nc4cncnc4n3Cc3ccccc3)CC2)cc1 [Compound 83] | 0.08 mg/kg |
| Cc1nc2ccccn2c(=O)c1CCN1CCC(Nc2nc3cncnc3n2Cc2cnccn2)CC1 [Compound 87, 2-methyl-3-[2-[4-[[9-(2-pyrazinylmethyl)-9H-purin-8-yl]amino]-1-piperidinyl]-ethyl]-4H-pyrido[1,2-a]pyrimidin-4-one] | 0.08 mg/kg |
| Cc1nc2ccccn2c(=O)c1CCN1CCC(Nc2nc3cncnc3n2Cc2ccco2)CC1 [Compound 88] | 0.02 mg/kg |
| Cc1nc2ccccn2c(=O)c1CCN1CCC(Nc2nc3cncnc3n2Cc2cccs2)CC1 [Compound 89] | 0.08 mg/kg |
| Cc1nc2ccccn2c(=O)c1CCN1CCC(Nc2nc3cncnc3n2Cc2ccccc2)CC1 [Compound 100] | 0.02 mg/kg |
| O=c1oc2ccccc2cc1CCN1CCC(Nc2nc3cncnc3n2Cc2ccco2)CC1 [Compound 104] | 0.04 mg/kg |

| Molecule | ED50 |
| --- | --- |
| O=c1oc2ccccc2cc1CCN1CCC(Nc2nc3cncnc3n2Cc2ccccn2)CC1 [Compound 106] | 0.08 mg/kg |
| Cc1ccc(Cn2c(NC3CCN(CCc4cc5ccccc5oc4=O)CC3)nc3cncnc32)o1 [Compound 107] | 0.02 mg/kg |
| O=C(O)/C=C/C(=O)O.O=C(O)/C=C/C(=O)O.O=c1[nH]c2ccccc2n1CCCN1CCC(Cc2nc3cncnc3n2Cc2ccc(F)cc2)CC1 [Compound 114, 1-[3-[4-[[9-[(4-fluorophenyl)methyl]-9H-purine-8-yl]methyl]-1-piperidinyl]-propyl]-1,3-dihydro-2H-benzimidazol-2-one (E)-2-butenedioate(1:2)] | 0.04 mg/kg |
| O=c1[nH]c2ccccc2n1CCN1CCC(Nc2nc3cncnc3n2Cc2ccc(F)cc2)CC1 [Compound 115, 1-[2-[4-[[9-[(4-fluorophenyl)methyl]-9H-puri-8-yl]amino]-1-piperidinyl]ethyl]-1,3-dihydro-2H-benzimidazol-2-one] | 0.08 mg/kg |
| Fc1ccc(Cn2c(NC3CCN(CCc4ccccn4)CC3)nc3cncnc32)cc1 [Compound 141, 9-[(4-fluorophenyl)methyl]-N-[1-[2-(2-pyridinyl)ethyl]-4-piperidinyl]-9H-purin-8-amine] | 0.01 mg/kg |
| c1ccc(CCN2CCC(Nc3nc4cncnc4n3Cc3ccco3)CC2)nc1 [Compound 142, 9-(2-furanylmethyl)-N-[1-[2-(2-pyridinyl)ethyl]-4-piperidinyl]-9H-purin-8-amine] | 0.02 mg/kg |
| c1ccc(CCN2CCC(Nc3nc4cncnc4n3Cc3cccs3)CC2)nc1 [Compound 143, N-[1-[2-(2-pyridinyl)ethyl]-4-piperidinyl]-9-(2-thienylmethyl)-9H-purin-8-amine] | 0.02 mg/kg |
| c1ccc(CCN2CCC(Nc3nc4cncnc4n3Cc3ccccn3)CC2)nc1 [Compound 144, N-[1-[2-(2-pyridinyl)ethyl]-4-piperidinyl]-9-(2-pyridinylmethyl)-9H-purin-8-amine] | 0.04 mg/kg |
| Cc1ccc(Cn2c(NC3CCN(CCc4ccccn4)CC3)nc3cncnc32)o1 [Compound 145, 9-[(5-methyl-2-furanyl)methyl]-N-[1-[2-(2-pyridinyl)ethyl]-4a-piperidinyl]-9H-purin-8-amine] | 0.01 mg/kg |
| c1cnc(NCCN2CCC(Nc3nc4cncnc4n3Cc3ccco3)CC2)nc1 [Compound 165] | 0.02 mg/kg |
| c1cnc(NCCN2CCC(Nc3nc4cncnc4n3Cc3cccs3)CC2)nc1 [Compound 167] | 0.08 mg/kg |
| Cc1ccc(Cn2c(NC3CCN(CCNc4ncccn4)CC3)nc3cncnc32)o1 [Compound 168] | 0.02 mg/kg |
| COc1ncnc2c1nc(CC1CCN(CCNc3ncccn3)CC1)n2Cc1ccc(F)cc1 [Compound 169] | 0.08 mg/kg |
| Fc1ccc(Cn2c(CC3CCN(CCNc4ncccn4)CC3)nc3cncnc32)cc1 [Compound 171] | 0.08 mg/kg |
| Fc1ccc(Cn2c(NC3CCN(CCNc4nccs4)CC3)nc3cncnc32)cc1 [Compound 172, 9-[(4-fluorophenyl)methyl]-N-[1-[2-(2-thiazolylamino)ethyl)-4-piperidinyl]-9H-purin-8-amine] | 0.04 mg/kg |
| Fc1ccc(Cn2c(NC3CCN(CCNc4nc5cnccc5[nH]4)CC3)nc3cncnc32)cc1 [Compound 183, 9-[(4-fluorophenyl)methyl]-N-[1-[2-[(1H-imidazo[4,5-c]pyridin-2-yl)amino]ethyl]-4-piperidinyl]-9H-purin-8-amine (E)-2-butenedioate(1:3) monohydrate] | 0.04 mg/kg |

Same assay, conditions: male Wistar rats; s.c. or oral, one hour before 0.5 mg/kg i.v. compound 48/80; ED50 = dose protecting 50% of animals; survival after 4 hours

| Molecule | compound 48/80 lethality test in rats-ED50 |
| --- | --- |
| 9-(2-furanylmethyl)-N-[1-[4-[(2-thiazolyl)amino]pentyl]-4-piperidinyl]-9H-purin-8-amine [Compound 173] | 0.08 mg/kg body weight |

Same assay, conditions: male Wistar rats; s.c. or oral, one hour before 0.5 mg/kg i.v. compound 48/80; ED50 = dose protecting 50% of animals; survival after 4 hours; 240 min

| Molecule | compound 48/80 lethality test in rats-ED50 |
| --- | --- |
| COc1ccc(CCN2CCC(Nc3nc4cncnc4n3Cc3ccc(F)cc3)CC2)cc1 [Compound 80] | 0.04 mg/kg body weight |

Reference: patent US5041448A, “(4-piperidinylmethyl and -hetero) purines” (Janssen Pharmaceutica N.V., priority 1985, dated 1991)
